What all share (assay type): biochemical
In experiment [1] the target is T1, purified recombinant human JAK3 protein (Homo sapiens, UniProt P52333).
T1 construct: purchased Carna Biosciences, Inc
T1 sequence (P52333 1-1124): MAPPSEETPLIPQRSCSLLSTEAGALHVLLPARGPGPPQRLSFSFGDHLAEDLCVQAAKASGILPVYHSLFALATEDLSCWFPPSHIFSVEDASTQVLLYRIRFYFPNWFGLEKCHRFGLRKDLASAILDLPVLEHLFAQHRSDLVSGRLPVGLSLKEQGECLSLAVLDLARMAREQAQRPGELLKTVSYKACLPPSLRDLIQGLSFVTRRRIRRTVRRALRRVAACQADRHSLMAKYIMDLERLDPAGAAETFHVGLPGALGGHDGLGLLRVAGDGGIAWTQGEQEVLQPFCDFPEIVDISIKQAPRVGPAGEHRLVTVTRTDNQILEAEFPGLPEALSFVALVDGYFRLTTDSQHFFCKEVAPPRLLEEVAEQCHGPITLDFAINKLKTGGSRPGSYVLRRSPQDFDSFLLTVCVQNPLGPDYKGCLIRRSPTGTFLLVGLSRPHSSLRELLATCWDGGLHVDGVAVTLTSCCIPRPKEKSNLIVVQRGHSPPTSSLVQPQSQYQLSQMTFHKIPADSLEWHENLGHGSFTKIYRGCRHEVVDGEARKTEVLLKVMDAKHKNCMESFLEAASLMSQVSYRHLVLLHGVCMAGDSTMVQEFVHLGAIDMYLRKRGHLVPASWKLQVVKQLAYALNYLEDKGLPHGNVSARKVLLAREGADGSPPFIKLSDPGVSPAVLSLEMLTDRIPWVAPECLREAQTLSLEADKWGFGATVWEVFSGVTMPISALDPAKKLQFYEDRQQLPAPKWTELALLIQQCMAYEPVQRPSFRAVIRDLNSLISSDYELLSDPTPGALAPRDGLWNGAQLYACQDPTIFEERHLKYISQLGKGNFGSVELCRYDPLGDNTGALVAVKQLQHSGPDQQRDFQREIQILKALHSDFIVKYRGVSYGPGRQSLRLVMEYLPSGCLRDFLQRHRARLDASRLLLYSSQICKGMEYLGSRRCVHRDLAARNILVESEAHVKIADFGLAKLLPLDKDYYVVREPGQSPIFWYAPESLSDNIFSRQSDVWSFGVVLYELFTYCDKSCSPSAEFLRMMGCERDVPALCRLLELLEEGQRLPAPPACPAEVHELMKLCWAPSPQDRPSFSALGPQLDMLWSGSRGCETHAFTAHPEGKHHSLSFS
As to the kind of experiment: Measurement of JAK3 kinase-inhibitory activity. The settings on record: substrate peptide 1 μM, ATP 5 μM, 25° C., 80 minutes. The method, then:
3) Measurement of JAK3 Kinase-Inhibitory Activity
The activity of the compound of the present invention to inhibit the activity of JAK3 kinase was measured.
Among materials for the measurement of this inhibitory activity, a substrate peptide and a kinase protein were acquired as follows. As such a substrate peptide, a substrate peptide for QSS Assist™ JAK3-MSA assay kit (Carna Biosciences, Inc.) was purchased. As such a kinase protein, a purified recombinant human JAK3 protein (Carna Biosciences, Inc.) was purchased.
The method for measuring the inhibitory activity is as follows. First, a serial dilution of the compound of the present invention was prepared by the same method as that described in the above section regarding JAK1. This serial dilution solution (the final concentration of DMSO upon a kinase reaction: 5.0%) or DMSO (final concentration: 5.0%) was mixed with a solution containing the substrate peptide (final concentration: 1 μM), magnesium chloride (final concentration: 5 mM) and ATP (final concentration: 5 μM) in a buffer for kinase reaction (20 mM HEPES (pH 7.5), 2 mM dithiothreitol and 0.01% Triton X-100). Thereafter, a JAK3 protein was further added to the mixed solution, and the obtained mixture was then incubated at 25° C. for 80 minutes to carry out a kinase reaction. To the reaction solution, EDTA was added to a final concentration of 30 mM, so as to terminate the reaction. After termination of the reaction, the measurement and the data analysis were carried out by the same methods as those described in the above section regarding JAK1.

Experiment [2] deals with T2, purified recombinant human JAK2 protein (Homo sapiens, UniProt O60674).
T2 construct: purchased Carna Biosciences, Inc
T2 sequence (O60674 whole entry): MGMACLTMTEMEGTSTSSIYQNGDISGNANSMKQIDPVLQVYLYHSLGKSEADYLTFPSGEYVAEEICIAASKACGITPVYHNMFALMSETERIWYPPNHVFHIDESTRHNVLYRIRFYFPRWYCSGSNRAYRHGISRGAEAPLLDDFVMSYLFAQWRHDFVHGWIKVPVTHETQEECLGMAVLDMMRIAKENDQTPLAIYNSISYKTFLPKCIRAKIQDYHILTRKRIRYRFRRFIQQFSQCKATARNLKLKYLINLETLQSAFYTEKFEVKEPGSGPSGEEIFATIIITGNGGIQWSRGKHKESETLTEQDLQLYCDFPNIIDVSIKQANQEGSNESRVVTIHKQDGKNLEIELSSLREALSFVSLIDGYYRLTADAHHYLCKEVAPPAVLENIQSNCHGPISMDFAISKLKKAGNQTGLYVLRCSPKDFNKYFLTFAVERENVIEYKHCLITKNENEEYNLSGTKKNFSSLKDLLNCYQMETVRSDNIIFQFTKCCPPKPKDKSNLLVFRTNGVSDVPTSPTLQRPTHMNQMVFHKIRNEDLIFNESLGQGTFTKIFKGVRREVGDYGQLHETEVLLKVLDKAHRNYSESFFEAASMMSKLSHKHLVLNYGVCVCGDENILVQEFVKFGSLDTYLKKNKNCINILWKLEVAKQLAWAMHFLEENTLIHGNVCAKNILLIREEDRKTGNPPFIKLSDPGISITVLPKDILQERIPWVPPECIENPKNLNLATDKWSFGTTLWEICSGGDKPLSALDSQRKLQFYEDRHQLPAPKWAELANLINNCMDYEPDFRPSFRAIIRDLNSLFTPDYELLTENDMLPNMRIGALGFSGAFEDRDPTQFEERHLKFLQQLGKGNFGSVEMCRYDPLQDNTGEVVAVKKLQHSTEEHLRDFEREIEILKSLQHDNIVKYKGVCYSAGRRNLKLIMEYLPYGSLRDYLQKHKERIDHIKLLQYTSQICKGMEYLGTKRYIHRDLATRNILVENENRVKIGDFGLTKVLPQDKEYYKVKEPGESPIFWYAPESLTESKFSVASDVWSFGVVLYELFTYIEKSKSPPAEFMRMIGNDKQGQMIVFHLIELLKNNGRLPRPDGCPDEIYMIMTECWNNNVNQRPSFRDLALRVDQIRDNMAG
Briefly: Measurement of JAK2 kinase-inhibitory activity. The settings on record: FL-Peptide 22 1 μM, ATP 10 μM, 25° C., 80 minutes. Here is the method:
2) Measurement of JAK2 Kinase-Inhibitory Activity
The activity of the compound of the present invention to inhibit the activity of JAK2 kinase was measured.
Among materials for the measurement of this inhibitory activity, a substrate peptide and a kinase protein were acquired as follows. As such a substrate peptide, FL-Peptide 22 (Perkin Elmer Corp.) was purchased. As such a kinase protein, a purified recombinant human JAK2 protein (Carna Biosciences, Inc.) was purchased.
The method for measuring the inhibitory activity is as follows. First, a serial dilution of the compound of the present invention was prepared by the same method as that described in the above section regarding JAK1. This serial dilution solution (the final concentration of DMSO upon a kinase reaction: 5.0%) or DMSO (final concentration: 5.0%) was mixed with a solution containing the substrate peptide (final concentration: 1 μM), magnesium chloride (final concentration: 10 mM) and ATP (final concentration: 10 μM) in a buffer for kinase reaction (15 mM Tris (pH 7.5), 2 mM dithiothreitol and 0.01% Tween 20). Thereafter, a JAK2 protein was further added to the mixed solution, and the obtained mixture was then incubated at 25° C. for 80 minutes to carry out a kinase reaction. To the reaction solution, EDTA was added to a final concentration of 30 mM, so as to terminate the reaction. After termination of the reaction, the measurement and the data analysis were carried out by the same methods as those described in the above section regarding JAK1.

For experiment [3], the target named is T3, purified recombinant human JAK1 protein (Homo sapiens, UniProt P23458).
T3 construct: purchased Carna Biosciences, Inc
T3 sequence (P23458 whole entry): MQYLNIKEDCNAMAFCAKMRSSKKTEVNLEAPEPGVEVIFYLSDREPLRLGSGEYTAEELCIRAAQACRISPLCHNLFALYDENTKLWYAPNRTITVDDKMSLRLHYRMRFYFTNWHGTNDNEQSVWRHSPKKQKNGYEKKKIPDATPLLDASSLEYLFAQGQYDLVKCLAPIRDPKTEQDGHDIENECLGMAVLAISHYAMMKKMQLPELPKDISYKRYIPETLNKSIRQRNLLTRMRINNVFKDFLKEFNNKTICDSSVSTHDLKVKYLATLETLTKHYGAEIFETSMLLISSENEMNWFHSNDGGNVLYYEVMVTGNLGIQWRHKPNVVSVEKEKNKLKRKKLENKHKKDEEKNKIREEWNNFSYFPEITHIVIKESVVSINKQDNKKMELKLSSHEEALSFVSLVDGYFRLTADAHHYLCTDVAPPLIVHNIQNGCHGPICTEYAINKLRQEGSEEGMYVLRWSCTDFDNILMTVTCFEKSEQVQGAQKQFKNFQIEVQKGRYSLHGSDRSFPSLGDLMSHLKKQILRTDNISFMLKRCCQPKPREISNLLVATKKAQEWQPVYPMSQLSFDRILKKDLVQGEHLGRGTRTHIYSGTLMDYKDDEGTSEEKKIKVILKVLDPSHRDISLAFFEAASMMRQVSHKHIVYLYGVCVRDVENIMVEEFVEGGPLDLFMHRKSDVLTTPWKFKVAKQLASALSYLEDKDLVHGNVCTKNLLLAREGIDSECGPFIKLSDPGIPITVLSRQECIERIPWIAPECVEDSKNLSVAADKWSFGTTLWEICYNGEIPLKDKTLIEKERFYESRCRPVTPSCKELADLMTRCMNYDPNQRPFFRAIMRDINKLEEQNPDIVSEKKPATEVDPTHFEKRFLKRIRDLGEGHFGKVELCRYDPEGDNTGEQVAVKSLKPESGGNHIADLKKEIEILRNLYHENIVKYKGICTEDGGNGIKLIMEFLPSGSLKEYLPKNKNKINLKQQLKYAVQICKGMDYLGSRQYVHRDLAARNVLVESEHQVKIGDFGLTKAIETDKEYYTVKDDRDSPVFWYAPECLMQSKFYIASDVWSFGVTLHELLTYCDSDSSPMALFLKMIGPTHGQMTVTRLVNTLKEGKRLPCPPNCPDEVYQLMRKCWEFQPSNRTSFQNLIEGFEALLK
As to the kind of experiment: Measurement of JAK1 kinase-inhibitory activity. The settings on record: substrate peptide 1 μM, ATP 75 M (so in the source), 25° C., 120 minutes. The method, then:
1) Measurement of JAK1 Kinase-Inhibitory Activity
The activity of the compound of the present invention to inhibit the activity of JAK1 kinase was measured.
Among materials for the measurement of this inhibitory activity, a substrate peptide and a kinase protein were acquired as follows. As such a substrate peptide, a substrate peptide for QSS Assist™ JAK1-MSA assay kit (Carna Biosciences, Inc.) was purchased. As such a kinase protein, a purified recombinant human JAK1 protein (Carna Biosciences, Inc.) was purchased.
The method for measuring the inhibitory activity is as follows. First, the compounds of the present invention were each dissolved in dimethyl sulfoxide (DMSO), and a serial dilution was then prepared by the use of DMSO. Subsequently, a serial dilution solution of the compound (the final concentration of DMSO upon a kinase reaction: 5.0%) or DMSO (final concentration: 5.0%) was mixed with a solution containing the substrate peptide (final concentration: 1 μM), magnesium chloride (final concentration: 5 mM) and ATP (final concentration: 75 µM) in a buffer for kinase reaction (20 mM HEPES (pH 7.5), 2 mM dithiothreitol and 0.01% Triton X-100). Thereafter, a JAK1 protein was further added to the mixed solution, and the obtained mixture was then incubated at 25° C. for 120 minutes to carry out a kinase reaction. To the reaction solution, EDTA was added to a final concentration of 30 mM, so as to terminate the reaction. Finally, with LabChip EZ Reader II (Perkin Elmer Corp.), an unphosphorylated substrate peptide (S) and a phosphorylated peptide (P) were subjected to microchannel capillary electrophoresis, so that the two peptides were separated from each other and were then detected. The amount of a phosphorylation reaction was obtained based on the heights of the peaks of S and P, and the concentration of the compound capable of inhibiting 50% of the phosphorylation reaction was defined as an IC50 value (nM).

For four molecules, IC50 results are on record in patent publication US9676773B2, “Azaindole derivative” (TAIHO PHARMACEUTICAL CO., LTD., priority 2014, dated 2017).

A word on the IC50: it is the concentration that gives 50% inhibition.

Consider `C=CC(=O)NC1CCC=C(c2ccnc3[nH]cc(C4=CCCC4)c23)C1` (stereo not drawn) [Compound 33, N-(3-(3-(Cyclocyclopent-1-en-1-yl)-1H-pyrrolo[2,3-b]pyridin-4-yl)cyclohex-3-en-1-yl)acrylamide], for which the IC50 in experiment [1] is 0.6 nM; in experiment [2], 1400 nM; in experiment [3], 3600 nM.

As for `C=CC(=O)NC1CCC=C(c2c(OC)cnc3[nH]cc(-c4ccco4)c23)C1` (stereo not drawn) [Compound 17, N-(3-(3-(Furan-2-yl)-5-methoxy-1H-pyrrolo[2,3-b]pyridin-4-yl)cyclohex-3-en-1-yl)acrylamide], the values for the IC50 in experiment [1], in experiment [2] and in experiment [3] were under 0.3 nM, 170 nM and 860 nM, respectively.

Take `C=CC(=O)NC1CCC=C(c2ccnc3[nH]cc(-c4cncc(CO)c4)c23)C1` (stereo not drawn) [Compound 11, N-(3-(3-(5-(Hydroxymethyl)pyridin-3-yl)-1H-pyrrolo[2,3-b]pyridin-4-yl)cyclohex-3-en-1-yl)acrylamide]: the IC50 is 0.49 nM in experiment [1], 1900 nM in experiment [2] and 9500 nM in experiment [3].

As to `C=CC(=O)NC1CCC=C(c2ccnc3[nH]cc(-c4n[nH]c(=O)o4)c23)C1` (stereo not drawn) [Compound 52, N-(3-(3-(5-Oxo-4,5-dihydro-1,3,4-oxadiazol-2-yl)-1H-pyrrolo[2,3-b]pyridin-4-yl)cyclohex-3-en-1-yl)acrylamide], the IC50 in experiment [1] is under 0.3 nM; in experiment [2], 480 nM; in experiment [3], 890 nM.
